Measured values published in PubChem BioAssay AID743450 (Broad Institute, 2014).
Where “and” joins values, the source holds several entries; their conditions need not be identical. Equal values may be shown once. Records with an inconclusive call do not appear. Calls of active or inactive are those of the source. No rule for the calls is given here.

Assay: TB CFU imaging, starved microorganism, inhibitor dose response, confirmatory, dry powder (AID 743450)
Conditions: not given

| Compound | AC90 |
| --- | --- |
| Cn1c(NC(=O)c2ccccc2)nc2cc(C(F)(F)F)ccc21 | 6.01 µM |
| Cn1c(NC(=O)c2ccccc2F)nc2ccccc21 | 4.84 µM |
| Cn1c(NC(=O)c2ccncc2)nc2ccccc21 | 15 µM |
| Cn1c(NC(=O)c2ccc(-c3ccccc3)cc2)nc2ccccc21 | 6.25 µM |
| Cn1c(NC(=O)c2ccccc2Cl)nc2ccccc21 | 4.64 µM |
| O=C(Nc1nc2ccccc2n1C1CCCCC1)c1ccccc1 | 8.07 µM |
| Cn1c(NC(=O)c2ccccc2)nc2ncccc21 | 2.23 µM |
| O=C(Nc1nc2ccccc2n1Cc1ccccc1)c1ccccc1 | 6.74 µM |
| Cn1c(NC(=O)c2ccc(F)cc2)nc2ccccc21 | 5.03 µM |
| Cn1c(NC(=O)c2ccccc2)nc2cccc(Cl)c21 | 10.2 µM |
| COc1ccccc1C(=O)Nc1nc2ccccc2n1C | 5.86 µM |
| CC(C)Oc1ccc(C(=O)Nc2nc3ccccc3n2C)cc1 | 6.98 µM |
| COc1cccc2c1nc(NC(=O)c1ccccc1)n2C | 3.66 µM |
| Cn1c(NC(=O)c2cccc(OC(F)F)c2)nc2ccccc21 | 22.3 µM |
| O=C(Nc1nc2ccccc2n1-c1ccccc1)c1ccccc1 | > 26 µM (inactive) |
| CC(C)n1c(NC(=O)c2ccccc2)nc2ccccc21 | 6.68 µM |
| Cn1c(NC(=O)c2ccc(OC(F)(F)F)cc2)nc2ccccc21 | 6.61 µM |
| Cn1c(NC(=O)c2ccccc2)nc2ccc3ncccc3c21 | 6.35 µM |
| Cc1ccc2c(c1)nc(NC(=O)c1ccccc1)n2C | 13.6 µM |
| Cn1c(NC(=O)c2ccc3ccccc3c2)nc2ccccc21 | 6.5 µM |

| Compound | AC90 |
| --- | --- |
| Cn1c(NC(=O)c2ccccc2)nc2ccccc21 | 4.27 µM and 4.2 µM |
| COc1ccc(C(=O)Nc2nc3ccccc3n2C)cc1 | 3.71 µM |
| O=C(Nc1nc2ccccc2n1CCN1CCCCC1)c1ccccc1 | 12.3 µM |
| Cn1c(NC(=O)c2ccccc2)nc2c3ncccc3ccc21 | 1.18 µM |
| Cc1cccc(C(=O)Nc2nc3ccccc3n2C)c1 | 8.9 µM |
| COc1cccc(C(=O)Nc2nc3ccccc3n2C)c1 | 6.18 µM |
| CN(C(=O)c1ccccc1)c1nc2ccccc2n1C | > 26 µM (inactive) |
| Cc1cc(C(=O)Nc2nc3ccccc3n2C)c(C)o1 | 9.93 µM |
| Cn1c(NC(=O)c2cccs2)nc2ccccc21 | 4.16 µM and 1.65 µM |
| COc1ccc(C(=O)Nc2nc3ccccc3n2C)cc1OC | 11.3 µM |
| Cn1c(NC(=O)c2ccccc2)nc2ccc(F)cc21 | 4.72 µM |
| CCCn1c(NC(=O)c2ccccc2)nc2ccccc21 | 6.02 µM |
| Cn1c(NC(=O)c2ccc(F)c(F)c2)nc2ccccc21 | 19.9 µM |
| CCCCn1c(NC(=O)c2ccccc2)nc2ccccc21 | 7.88 µM |
| Cn1c(NC(=O)c2ccccc2)nc2c3ccncc3ccc21 | 6.92 µM |
| CN(C)c1cccc(C(=O)Nc2nc3ccccc3n2C)c1 | 5.34 µM |
| Cn1c(NC(=O)c2ccc(C(C)(C)C)cc2)nc2ccccc21 | 6.68 µM |
| Cc1ccc(C(=O)Nc2nc3ccccc3n2C)cc1 | 4.71 µM |
| Cn1c(NC(=O)c2ccccc2)nc2c3cccnc3ccc21 | 12 µM |
| O=C(Nc1nc2ccccc2[nH]1)c1ccccc1 | 12.3 µM |

| Compound | AC90 |
| --- | --- |
| CCn1c(NC(=O)c2ccccc2)nc2ccccc21 | 5.52 µM |
| COc1ccc2c(c1)nc(NC(=O)c1ccccc1)n2C | 4.26 µM |
| Cn1c(NC(=O)c2cccc3ccccc23)nc2ccccc21 | 2.81 µM |
| Cn1c(NC(=O)c2ccccc2NC(=O)c2ccccc2)nc2ccccc21 | 5.02 µM |
| Cn1c(NC(=O)Cc2ccccc2)nc2ccccc21 | 3.85 µM |
| Cn1c(NC(=O)c2ccccc2)nc2cc(Cl)ccc21 | 6.02 µM |
| Cn1c(NC(=O)c2ccc(Cl)cc2)nc2ccccc21 | 12.3 µM |
| Cn1c(NC(=O)c2ccccc2)nc2cc(C#N)ccc21 | 7.91 µM |
| Cn1c(NC(=O)c2ccccc2)nc2c3nccnc3ccc21 | 1.37 µM |
| Cn1c(NC(=O)c2ccccc2)nc2c(C#N)cccc21 | 5.26 µM |
| Cn1c(NC(=O)c2ccccc2C(F)(F)F)nc2ccccc21 | 7.01 µM |
| Cn1c(NC(=O)c2ccccn2)nc2ccccc21 | 5.17 µM |
| O=C(Nc1nc2ccccc2n1C1CC1)c1ccccc1 | 4.84 µM |
| COCCn1c(NC(=O)c2ccccc2)nc2ccccc21 | 2.23 µM |
| CCN(CC)CCn1c(NC(=O)c2ccccc2)nc2ccccc21 | 7.31 µM |
| Cn1c(NC(=O)c2cccc(F)c2)nc2ccccc21 | 7.51 µM |
| Cn1c(NC(=O)c2ccccc2)nc2c(F)cccc21 | 10.1 µM |
| Cn1c(NC(=O)c2cccnc2)nc2ccccc21 | 5.75 µM |
| Cn1c(NC(=O)c2ccccc2)nc2cc(F)ccc21 | 4.55 µM |
| Cn1c(NC(=O)c2cccc(Cl)c2)nc2ccccc21 | 5.55 µM |

Same assay, conditions: at 26 µM (top of the series)

| Compound | activity change, negative = inhibition |
| --- | --- |
| O=C(Nc1nc2ccccc2n1CCN1CCOCC1)c1ccccc1 | -51% (inactive) |
| CCn1c(NC(=O)c2cnn(Cc3ccccc3)c2)nc2ccccc21 | -74% (inactive) |
| Cn1c(NC(=O)c2cccc(C(F)(F)F)c2)nc2ccccc21 | -84% (inactive) |
| Cn1c(NC(=O)c2ccccc2)nc2cccnc21 | -100% (inactive) |
| Cn1c(N)nc2ccccc21 | 3% (inactive) |
| Cn1c(NC(=O)c2ccccc2)nc2ccc(C#N)cc21 | -66% (inactive) |
